Reference: US4355026A, “4-Demethoxy,11-deoxy anthracycline derivatives” (priority 1980, dated 1982)
≈ marks a conversion by molar mass, not a printed value. Where two headings read alike, the source gives them in different places.

Key:
[1] = test system: L1210 leukemia cells; experiment: Inhibitory effect on growth of L1210 cultivated leukemic cells of mice; type: cell-based; settings: Mus musculus, RPMI 1640, 20% calf serum, 37° C.
Experimental: (§1) A. Inhibitory Effect on Growth, DNA Synthesis and RNA Synthesis of L1210 Cultivated Leukemic Cells of Mice
For example, L1210 cells were inoculated in a concentration of 5×10^4 cells/ml in an RPMI 1640 culture medium (Roswell Park Memorial Institute 1640) containing 20% calf serum and, simultaneously, representative compounds of the present invention were added in a concentration of 0.1 and 0.5 μg/ml. The cells were cultivated in a CO2 generator at 37° C. The 50% growth inhibitory concentration with respect to a control group was then determined.

[2] = test system: L1210 leukemia cells, DNA synthesis; experiment: Inhibition of DNA synthesis (14C-thymidine incorporation) of L1210 cultivated leukemic cells; type: cell-based; settings: Mus musculus, L1210, 1 h, 14C-thymidine, 60 minutes, 37° C.; for IC50: read-out: IC50 DNA synthesis; for IC90: 90% inhibition, read-out: IC90 DNA synthesis
Experimental: as §1
(§2) Separately, the above L1210 cultivated cells were suspended in a concentration of 5×10^5 cells/ml in an RPMI 1640 medium containing 10% calf serum and cultivated for 1 to 2 hours in a CO2 incubator at 37° C. Then, representative test compounds were added in various concentrations, and 15 minutes later, ^14 C-uridine (0.05 μCi/ml) or ^14 C-thymidine (0.05 μCi/ml) were added. The cells were incubated at 37° C. for 60 minutes. A 10% aqueous trichloroacetic acid solution was added to the incubation medium to stop the reaction and simultaneously precipitate acid-insoluble matter. The acid-insoluble matter was washed three times with a 5 to 10% aqueous solution of trichloroacetic acid and then dissolved in formic acid. The radioactivity of the acid-insoluble matter was measured. From the ratio of incorporated radiation to that of a control group, the concentrations which inhibited radiation by 10%, 50% and 90% respectively were measured.

[3] = test system: L1210 leukemia cells, RNA synthesis; experiment: Inhibition of RNA synthesis (14C-uridine incorporation) of L1210 cultivated leukemic cells; type: cell-based; settings: Mus musculus, L1210, 1 h, 14C-uridine, 60 minutes, 37° C.; for IC50: read-out: IC50 RNA synthesis; for IC90: 90% inhibition, read-out: IC90 RNA synthesis
Experimental: as §1, §2

[4] = test system: L1210 leukemia cells; experiment: Antitumor activity on CDFI mouse leukemia induced by mouse L1210 leukemia cells; type: in vivo, CDFI mice; design: key to Toxicity: *: Toxicity-
Experimental: B. Antitumor Activity on CDFI Mouse Leukemia Induced by Mouse L1210 Leukemia cells
L1210 leukemia cells of mice were intraperitoneally transplanted in an amount of 1×10^5 cells/mouse in CDFI mice. Starting 24 hours after the transplantation, each of the test compounds was intraperitoneally administered to the mice for 10 consecutive days. the survival rate (T/C, %) was calculated in comparison with a control group (to which physiological saline was administered).

[5] = test system: Bacillus cereus ATCC 10702; experiment: MIC on nutrient agar medium; type: cell-based; settings: ATCC10702
Excerpt: (§3) The compounds of formula I provided by the present invention are also characterized by their antimicrobial activity. Table 3 summarizes the minimum inhibitory concentrations (MIC) of representative compounds of the present invention against various microorganisms on a nutrient agar medium.

[6] = test system: Bacillus megatherium APF; experiment: MIC on nutrient agar medium; type: cell-based
Excerpt: as §3

[7] = test system: Bacillus subtilis NRRB- 558; experiment: MIC on nutrient agar medium; type: cell-based; settings: NRRB558
Excerpt: as §3

[8] = test system: Bacillus subtilis PCI 219; experiment: MIC on nutrient agar medium; type: cell-based; settings: PCI219
Excerpt: as §3

[9] = test system: Candida albicans 3147; experiment: MIC on nutrient agar medium; type: cell-based
Excerpt: as §3

[10] = test system: Corynebacterium bovis 1810; experiment: MIC on nutrient agar medium; type: cell-based
Excerpt: as §3

[11] = test system: Escherichia coli NIHJ; experiment: MIC on nutrient agar medium; type: cell-based
Excerpt: as §3

[12] = test system: Klebsiella pneumonia PCI 602; experiment: MIC on nutrient agar medium; type: cell-based; settings: Klebsiella pneumoniae, PCI602
Excerpt: as §3

[13] = test system: Microccus flavus FDA 16; experiment: MIC on nutrient agar medium; type: cell-based
Excerpt: as §3

[14] = test system: Microccus lysodeikticus IFQ 3333; experiment: MIC on nutrient agar medium; type: cell-based
Excerpt: as §3

[15] = test system: Mycobacterium smegmatis ATCC 607; experiment: MIC on nutrient agar medium; type: cell-based; settings: Mycolicibacterium smegmatis, ATCC607
Excerpt: as §3

[16] = test system: Pseudomonas aeruginosa A3; experiment: MIC on nutrient agar medium; type: cell-based
Excerpt: as §3

[17] = test system: Salmonella typhi T - 63; experiment: MIC on nutrient agar medium; type: cell-based; settings: Salmonella enterica
Excerpt: as §3

[18] = test system: Sarcina lutea PCI 1001; experiment: MIC on nutrient agar medium; type: cell-based; settings: Micrococcus luteus, PCI1001
Excerpt: as §3

[19] = test system: Shigella flexneri 46 JS 11811; experiment: MIC on nutrient agar medium; type: cell-based; settings: 46JS11811
Excerpt: as §3

[20] = test system: Staphylococcus aureus FDA 209; experiment: MIC on nutrient agar medium; type: cell-based; settings: FDA209
Excerpt: as §3

[21] = test system: Staphylococcus aureus smith; experiment: MIC on nutrient agar medium; type: cell-based
Excerpt: as §3

[22] = L1210, 24 h, 1 day later, read-out: IC50 growth, 1 day later
[23] = L1210, 48 h, 2 days later, read-out: IC50 growth, 2 days later
[24] = 0.15 mg/kg/day, intraperitoneal, 10 consecutive days
[25] = 0.3 mg/kg/day, intraperitoneal, 10 consecutive days
[26] = 0.6 mg/kg/day, intraperitoneal, 10 consecutive days
[27] = 1.25 mg/kg/day, intraperitoneal, 10 consecutive days
[28] = 2.5 mg/kg/day, intraperitoneal, 10 consecutive days

SMILES | IC50 [1, 22] | IC50 [1, 23] | IC50 [2] | IC90 [2] | IC50 [3] | IC90 [3] | MIC [5] | MIC [6] | MIC [7] | MIC [8] | MIC [9] | MIC [10] | MIC [11] | MIC [12] | MIC [13] | MIC [14] | MIC [15] | MIC [16] | MIC [17] | MIC [18] | other results
C[C@@H]1O[C@@H](O[C@H]2C[C@](O)(C(=O)CO)Cc3cc4c(c(O)c32)C(=O)c2ccccc2C4=O)C[C@H](N)[C@@H]1O (single isomer, unassigned; isomer 4) [4-Demethoxy-11-deoxy-adriamycin (7S,9S,1'α)isomer, 4-Demethoxy-11-deoxyadriamycin] | 0.07 µg/mL (≈ 0.141 µM) | 0.03 µg/mL (≈ 0.0603 µM) | 0.64 µg/mL (≈ 1.29 µM) | 5.6 µg/mL (≈ 11.3 µM) | 0.8 µg/mL (≈ 1.61 µM) | 4.6 µg/mL (≈ 9.25 µM) | 25 µg/mL (≈ 50.3 µM) | 12.5 µg/mL (≈ 25.1 µM) | 12.5 µg/mL (≈ 25.1 µM) | 12.5 µg/mL (≈ 25.1 µM) | > 100 µg/mL | 100 µg/mL (≈ 201 µM) | > 100 µg/mL | > 100 µg/mL | 50 µg/mL (≈ 101 µM) | 50 µg/mL (≈ 101 µM) | 12.5 µg/mL (≈ 25.1 µM) | > 100 µg/mL | > 100 µg/mL | 100 µg/mL (≈ 201 µM) | Survival rate (T/C, %) [4, 24]: 135%; Survival rate (T/C, %) [4, 25]: 162%; Survival rate (T/C, %) [4, 26]: 184%; Survival rate (T/C, %) [4, 27]: 308%; Survival rate (T/C, %) [4, 28]: 177%; Toxicity [4, 28]: *; antitumor activity on experimental animal tumors (in words) ([4]; experimental animal tumors): particularly noteworthy; MIC [19]: > 100 µg/mL; MIC [20]: 100 µg/mL (≈ 201 µM); MIC [21]: 12.5 µg/mL (≈ 25.1 µM)
CC(=O)[C@]1(O)Cc2cc3c(c(O)c2[C@@H](O[C@H]2C[C@H](N)[C@H](O)[C@H](C)O2)C1)C(=O)c1ccccc1C3=O (single isomer, unassigned; isomer 4) [4-Demethoxy-11-deoxy-daunomycin (7S,9S,1'α)isomer, 4-Demethoxy-11-deoxydaunomycin] | 0.09 µg/mL (≈ 0.187 µM) | 0.01 µg/mL (≈ 0.0208 µM) | 0.22 µg/mL (≈ 0.457 µM) | 2.5 µg/mL (≈ 5.19 µM) | 0.34 µg/mL (≈ 0.706 µM) | 2.5 µg/mL (≈ 5.19 µM) | 12.5 µg/mL (≈ 26 µM) | 6.25 µg/mL (≈ 13 µM) | 6.25 µg/mL (≈ 13 µM) | 3.12 µg/mL (≈ 6.48 µM) | 100 µg/mL (≈ 208 µM) | 6.25 µg/mL (≈ 13 µM) | > 100 µg/mL | 100 µg/mL (≈ 208 µM) | 6.25 µg/mL (≈ 13 µM) | 12.5 µg/mL (≈ 26 µM) | 12.5 µg/mL (≈ 26 µM) | > 100 µg/mL | > 100 µg/mL | 6.25 µg/mL (≈ 13 µM) | Survival rate (T/C, %) [4, 24]: 103%; Survival rate (T/C, %) [4, 25]: 115%; Survival rate (T/C, %) [4, 26]: 115%; Survival rate (T/C, %) [4, 27]: 135%; Survival rate (T/C, %) [4, 28]: 160%; MIC [19]: 100 µg/mL (≈ 208 µM); MIC [20]: 25 µg/mL (≈ 51.9 µM); MIC [21]: 12.5 µg/mL (≈ 26 µM)
CC(=O)[C@@]1(O)Cc2cc3c(c(O)c2[C@H](O[C@H]2C[C@H](N)[C@H](O)[C@H](C)O2)C1)C(=O)c1ccccc1C3=O (single isomer, unassigned; isomer 4) [4-Demethoxy-11-deoxy-daunomycin (7R,9R,1'α)isomer, 4-Demethoxy-11-deoxydaunomycin] | > 2.5 µg/mL | > 2.5 µg/mL | 5.4 µg/mL (≈ 11.2 µM) | 13 µg/mL (≈ 27 µM) | 9 µg/mL (≈ 18.7 µM) | > 10 µg/mL | 50 µg/mL (≈ 104 µM) | 50 µg/mL (≈ 104 µM) | 50 µg/mL (≈ 104 µM) | 100 µg/mL (≈ 208 µM) | > 100 µg/mL | 100 µg/mL (≈ 208 µM) | > 100 µg/mL | > 100 µg/mL | > 100 µg/mL | > 100 µg/mL | 100 µg/mL (≈ 208 µM) | > 100 µg/mL | > 100 µg/mL | 50 µg/mL (≈ 104 µM) | MIC [19]: > 100 µg/mL; MIC [20]: > 100 µg/mL; MIC [21]: > 100 µg/mL
